Results as given in US6737383B1, “Herbicidal oxadiazolidines” (priority 1999, dated 2004).

Legend:
bedstraw = assay: Test B pre/postemergence bedstraw; type: in vivo, Galium aparine
Outline: (§1)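 Response is a visual 0-to-10 score relative to untreated plants, where 0 means no effect and 10 means complete control, taken twelve to sixteen days after application. Treatments went onto soil at planting and onto foliage of 1- to 4-leaf plants, using a surfactant-containing non-phytotoxic solvent.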

cocklebur = assay: Test B pre/postemergence cocklebur; type: in vivo, Xanthium strumarium
Outline: as §1

corn = assay: Test B pre/postemergence corn; type: in vivo, Zea mays
Outline: as §1

crabgrass = assay: Test B pre/postemergence crabgrass; type: in vivo, Digitaria sanguinalis
Outline: as §1

giant foxtail = assay: Test B pre/postemergence giant foxtail; type: in vivo, Setaria faberii
Outline: as §1

morningglory = assay: Test B pre/postemergence morningglory; type: in vivo, Ipomoea hederacea
Outline: as §1

pigweed = assay: Test B pre/postemergence pigweed; type: in vivo, Amaranthus retroflexus
Outline: as §1

rape = assay: Test B pre/postemergence rape; type: in vivo, Brassica napus
Outline: as §1

soybean = assay: Test B pre/postemergence soybean; type: in vivo, Glycine max
Outline: as §1

velvetleaf = assay: Test B pre/postemergence velvetleaf; type: in vivo, Abutilon theophrasti
Outline: as §1

wheat = assay: Test B pre/postemergence wheat; type: in vivo, Triticum aestivum
Outline: as §1

wild oat = assay: Test B pre/postemergence wild oat; type: in vivo, Avena fatua
Outline: as §1

purple nutsedge = assay: Test B pre/postemergence purple nutsedge; type: in vivo, Cyperus rotundus
Outline: as §1

rice = assay: Test B flood test rice; type: in vivo, Oryza sativa
Outline: (§2)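 Each value is a visual injury score relative to controls, with 10 meaning complete control and 0 no effect. Evaluation took place twelve to sixteen days after the 2-leaf-stage plants were treated and kept in the greenhouse.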

smallflower flatsedge = assay: Test B flood test smallflower flatsedge; type: in vivo, Cyperus difformis
Outline: as §2

duck salad = assay: Test B flood test duck salad; type: in vivo, Heteranthera limosa
Outline: as §2

[1] = Postemergence, Rate 62 g/ha, scale of 0 to 10, 0 is no effect, 10 is complete control
[2] = Postemergence, Rate 125 g/ha, scale 0 to 10, 0 is no effect, 10 is complete control
[3] = Postemergence, Rate 500 g/ha, scale 0 to 10, 0 is no effect, 10 is complete control
[4] = Preemergence, Rate 62 g/ha, scale 0 to 10 (0 no effect, 10 complete control)
[5] = Preemergence, Rate 125 g/ha, scale 0 to 10, 0 is no effect, 10 is complete control
[6] = Preemergence, Rate 500 g/ha, scale of 0 to 10 where 0 is no effect and 10 is complete control
[7] = Rate 250 g/ha, Postemergence, scale of 0 to 10 where 0 is no effect and 10 is complete control
[8] = Rate 62 g/ha, flood test species, Pre-emergence, visual evaluation after twelve to sixteen days
[9] = Rate 125 g/ha, under heading Pre-emergence, flood test species, visual evaluation after twelve to sixteen days
[10] = Rate 250 g/ha, Pre-emergence (flood test species), scale 0 to 10, 0 is no effect, 10 is complete control
[11] = Rate 500 g/ha, Pre-emergence section of Table B, 0 to 10 scale (0 no effect, 10 complete control)

Structure (SMILES): CC(C)N(C(=O)n1oc(=O)n(CC2CCC2)c1=O)c1ccc(Cl)cc1 [Compound 550]
- Bedstraw plant response rating (bedstraw; [1]): 0
- Bedstraw plant response rating (bedstraw; [2]): 0
- Plant response rating, Bedstraw (bedstraw; [3]): 0
- Bedstraw plant response rating (bedstraw; [4]): 0
- Bedstraw plant response rating (bedstraw; [5]): 0
- Bedstraw plant response rating (0 to 10 scale) (bedstraw; Preemergence, Rate 250 g/ha): 0
- Bedstraw plant response rating (bedstraw; [6]): 3
- Plant response rating, Bedstraw (bedstraw; [7]): 0
- Cocklebur plant response rating (cocklebur; [1]): 0
- Cocklebur plant response rating (cocklebur; [2]): 0
- Plant response rating, Cocklebur (cocklebur; [3]): 2
- Cocklebur plant response rating (cocklebur; [4]): 0
- Cocklebur plant response rating (cocklebur; [5]): 0
- Cocklebur plant response rating (0 to 10 scale) (cocklebur; Preemergence, Rate 250 g/ha): 0
- Cocklebur plant response rating (cocklebur; [6]): 0
- Plant response rating, Cocklebur (cocklebur; [7]): 1
- Corn plant response rating (corn; [1]): 0
- Corn plant response rating (corn; [2]): 0
- Plant response rating, Corn (corn; [3]): 2
- Corn plant response rating (corn; [4]): 0
- Corn plant response rating (corn; [5]): 0
- Corn plant response rating (0 to 10 scale) (corn; Preemergence, Rate 250 g/ha): 0
- Corn plant response rating (corn; [6]): 0
- Plant response rating, Corn (corn; [7]): 0
- Crabgrass plant response rating (crabgrass; [2]): 7
- Crabgrass plant response rating (crabgrass; [4]): 4
- Crabgrass plant response rating (crabgrass; [5]): 10
- Crabgrass plant response rating (0 to 10 scale) (crabgrass; Preemergence, Rate 250 g/ha): 10
- Crabgrass plant response rating (crabgrass; [6]): 10
- Plant response rating, Crabgrass (crabgrass; [7]): 10
- Giant foxtail plant response rating (giant foxtail; [1]): 2
- Giant foxtail plant response rating (giant foxtail; [2]): 6
- Plant response rating, Giant foxtail (giant foxtail; [3]): 9
- Giant foxtail plant response rating (giant foxtail; [4]): 7
- Giant foxtail plant response rating (giant foxtail; [5]): 9
- Giant foxtail plant response rating (0 to 10 scale) (giant foxtail; Preemergence, Rate 250 g/ha): 10
- Giant foxtail plant response rating (giant foxtail; [6]): 10
- Plant response rating, Giant foxtail (giant foxtail; [7]): 9
- Morningglory plant response rating (morningglory; [1]): 1
- Morningglory plant response rating (morningglory; [2]): 1
- Plant response rating, Morningglory (morningglory; [3]): 8
- Morningglory plant response rating (morningglory; [4]): 0
- Morningglory plant response rating (morningglory; [5]): 0
- Morningglory plant response rating (0 to 10 scale) (morningglory; Preemergence, Rate 250 g/ha): 0
- Morningglory plant response rating (morningglory; [6]): 0
- Plant response rating, Morningglory (morningglory; [7]): 9
- Redroot pigweed plant response rating (pigweed; [1]): 0
- Redroot pigweed plant response rating (pigweed; [2]): 0
- Plant response rating, Redroot pigweed (pigweed; [3]): 0
- Redroot pigweed plant response rating (pigweed; [4]): 7
- Redroot pigweed plant response rating (pigweed; [5]): 9
- Redroot pigweed plant response rating (0 to 10 scale) (pigweed; Preemergence, Rate 250 g/ha): 9
- Redroot pigweed plant response rating (pigweed; [6]): 10
- Plant response rating, Redroot pigweed (pigweed; [7]): 0
- Rape plant response rating (rape; [1]): 0
- Rape plant response rating (rape; [2]): 3
- Plant response rating, Rape (rape; [3]): 3
- Rape plant response rating (rape; [4]): 0
- Rape plant response rating (rape; [5]): 0
- Rape plant response rating (0 to 10 scale) (rape; Preemergence, Rate 250 g/ha): 6
- Rape plant response rating (rape; [6]): 9
- Soybean plant response rating (soybean; [1]): 2
- Soybean plant response rating (soybean; [2]): 2
- Plant response rating, Soybean (soybean; [3]): 3
- Soybean plant response rating (soybean; [4]): 0
- Soybean plant response rating (soybean; [5]): 0
- Soybean plant response rating (0 to 10 scale) (soybean; Preemergence, Rate 250 g/ha): 0
- Soybean plant response rating (soybean; [6]): 0
- Plant response rating, Soybean (soybean; [7]): 3
- Velvetleaf plant response rating (velvetleaf; [1]): 0
- Velvetleaf plant response rating (velvetleaf; [2]): 0
- Plant response rating, Velvetleaf (velvetleaf; [3]): 2
- Velvetleaf plant response rating (velvetleaf; [4]): 0
- Velvetleaf plant response rating (velvetleaf; [5]): 0
- Velvetleaf plant response rating (0 to 10 scale) (velvetleaf; Preemergence, Rate 250 g/ha): 2
- Velvetleaf plant response rating (velvetleaf; [6]): 4
- Plant response rating, Velvetleaf (velvetleaf; [7]): 0
- Wheat plant response rating (wheat; [1]): 0
- Wheat plant response rating (wheat; [2]): 0
- Plant response rating, Wheat (wheat; [3]): 0
- Wheat plant response rating (wheat; [4]): 0
- Wheat plant response rating (wheat; [5]): 2
- Wheat plant response rating (0 to 10 scale) (wheat; Preemergence, Rate 250 g/ha): 2
- Wheat plant response rating (wheat; [6]): 2
- Plant response rating, Wheat (wheat; [7]): 0
- Wild oats plant response rating (wild oat; [1]): 0
- Wild oats plant response rating (wild oat; [2]): 2
- Plant response rating, Wild oats (wild oat; [3]): 3
- Wild oats plant response rating (wild oat; [4]): 0
- Wild oats plant response rating (wild oat; [5]): 0
- Wild oats plant response rating (0 to 10 scale) (wild oat; Preemergence, Rate 250 g/ha): 2
- Wild oats plant response rating (wild oat; [6]): 8
- Plant response rating, Wild oats (wild oat; [7]): 4
- Nutsedge plant response rating (purple nutsedge; [1]): 0
- Nutsedge plant response rating (purple nutsedge; [2]): 0
- Plant response rating, Nutsedge (purple nutsedge; [3]): 2
- Nutsedge plant response rating (purple nutsedge; [4]): 0
- Nutsedge plant response rating (purple nutsedge; [5]): 0
- Nutsedge plant response rating (0 to 10 scale) (purple nutsedge; Preemergence, Rate 250 g/ha): 0
- Nutsedge plant response rating (purple nutsedge; [6]): 6
- Plant response rating, Nutsedge (purple nutsedge; [7]): 0
- Plant response rating, Rice (0 to 10 scale, 0 is no effect, 10 is complete control) (rice; [8]): 0
- Rice plant response rating (0 to 10 scale, 0 is no effect, 10 is complete control) (rice; [9]): 0
- Rice plant response rating (rice; [10]): 0
- Rice plant response rating (rice; [11]): 0
- Plant response rating, S. Flatsedge (0 to 10 scale, 0 is no effect, 10 is complete control) (smallflower flatsedge; [8]): 0
- S. Flatsedge plant response rating (0 to 10 scale, 0 is no effect, 10 is complete control) (smallflower flatsedge; [9]): 0
- S. Flatsedge plant response rating (smallflower flatsedge; [10]): 0
- S. Flatsedge plant response rating (smallflower flatsedge; [11]): 0
- Plant response rating, Ducksalad (0 to 10 scale, 0 is no effect, 10 is complete control) (duck salad; [8]): 0
- Ducksalad plant response rating (0 to 10 scale, 0 is no effect, 10 is complete control) (duck salad; [9]): 0
- Ducksalad plant response rating (duck salad; [10]): 0
- Ducksalad plant response rating (duck salad; [11]): 0
